#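 Each compound was tested at five concentrations against cells in 96-well plates for 48 hours. GI50: concentration for 50% inhibition of growth. TGI: total growth inhibition.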
# What was measured:
# Experiment in all cases: NCI-60 cell line screen, 48 h
# RPMI-8226 leukemia = test system: RPMI-8226 leukemia
# A498 renal = test system: A498 renal
# SK-MEL-2 melanoma = test system: SK-MEL-2 melanoma
# HCT-15 colon = test system: HCT-15 colon
# NCI-H226 lung = test system: NCI-H226 lung
# TK-10 renal = test system: TK-10 renal
# A549 NSCLC = test system: A549 NSCLC
# ACHN renal = test system: ACHN renal
# MDA-MB-231 breast = test system: MDA-MB-231 breast
# OVCAR-3 ovarian = test system: OVCAR-3 ovarian
# MOLT-4 leukemia = test system: MOLT-4 leukemia
# MDA-MB-435 = test system: MDA-MB-435
# HT29 colon = test system: HT29 colon
# SW-620 colon = test system: SW-620 colon
# M14 melanoma = test system: M14 melanoma
# HCT-116 colon = test system: HCT-116 colon
# PC-3 prostate = test system: PC-3 prostate
# NCI/ADR-RES ovarian = test system: NCI/ADR-RES ovarian
# SK-OV-3 ovarian = test system: SK-OV-3 ovarian
# OVCAR-4 ovarian = test system: OVCAR-4 ovarian
# OVCAR-8 ovarian = test system: OVCAR-8 ovarian
# OVCAR-5 ovarian = test system: OVCAR-5 ovarian
# CCRF-CEM leukemia = test system: CCRF-CEM leukemia
# SK-MEL-28 melanoma = test system: SK-MEL-28 melanoma
# IGROV1 ovarian = test system: IGROV1 ovarian
# BT-549 breast = test system: BT-549 breast
# RXF 393 renal = test system: RXF 393 renal
# CAKI-1 renal = test system: CAKI-1 renal
# T-47D breast = test system: T-47D breast
# SNB-75 CNS = test system: SNB-75 CNS
# HL-60(TB) leukemia = test system: HL-60(TB) leukemia
# COLO 205 colon = test system: COLO 205 colon
# UACC-257 melanoma = test system: UACC-257 melanoma
# HOP-92 NSCLC = test system: HOP-92 NSCLC
# NCI-H522 lung = test system: NCI-H522 lung
# U251 CNS = test system: U251 CNS
# NCI-H460 lung = test system: NCI-H460 lung
# SK-MEL-5 melanoma = test system: SK-MEL-5 melanoma
# SN12C renal = test system: SN12C renal
# SF-539 CNS = test system: SF-539 CNS
# UO-31 renal = test system: UO-31 renal
# EKVX NSCLC = test system: EKVX NSCLC
# KM12 colon = test system: KM12 colon
# HOP-62 NSCLC = test system: HOP-62 NSCLC
# K-562 leukemia = test system: K-562 leukemia
# UACC-62 melanoma = test system: UACC-62 melanoma
# HCC-2998 colon = test system: HCC-2998 colon
# LOX IMVI melanoma = test system: LOX IMVI melanoma
# SNB-19 CNS = test system: SNB-19 CNS
# MCF7 breast = test system: MCF7 breast
# 786-0 renal = test system: 786-0 renal
# SF-295 CNS = test system: SF-295 CNS
# DU-145 prostate = test system: DU-145 prostate
# HS 578T breast = test system: HS 578T breast
# SR leukemia = test system: SR leukemia
# MALME-3M melanoma = test system: MALME-3M melanoma
# SF-268 CNS = test system: SF-268 CNS
compound,measurement,setting,value
CC[C@@H](CO)Nc1ccc2ncc(C#Cc3cncc(C(=O)Nc4ccc(CN5CCN(C)CC5)c(C(F)(F)F)c4)c3)n2n1,GI50,RPMI-8226 leukemia,254 nM
same,TGI,RPMI-8226 leukemia,1070 nM
same,GI50,A498 renal,1060 nM
same,TGI,A498 renal,1920 nM
same,GI50,SK-MEL-2 melanoma,115 nM
same,TGI,SK-MEL-2 melanoma,339 nM
same,GI50,HCT-15 colon,583 nM
same,TGI,HCT-15 colon,1700 nM
same,GI50,NCI-H226 lung,79.6 nM
same,TGI,NCI-H226 lung,635 nM
same,GI50,TK-10 renal,343 nM
same,TGI,TK-10 renal,1180 nM
same,GI50,A549 NSCLC,199 nM
same,TGI,A549 NSCLC,768 nM
same,GI50,ACHN renal,363 nM
same,TGI,ACHN renal,1180 nM
same,GI50,MDA-MB-231 breast,48.2 nM
same,TGI,MDA-MB-231 breast,500 nM
same,GI50,OVCAR-3 ovarian,167 nM
same,TGI,OVCAR-3 ovarian,954 nM
same,GI50,MOLT-4 leukemia,43.8 nM
same,TGI,MOLT-4 leukemia,693 nM
same,GI50,MDA-MB-435,104 nM
same,TGI,MDA-MB-435,634 nM
same,GI50,HT29 colon,157 nM
same,TGI,HT29 colon,655 nM
same,GI50,SW-620 colon,81.3 nM
same,TGI,SW-620 colon,281 nM
same,GI50,M14 melanoma,118 nM
same,TGI,M14 melanoma,360 nM
same,GI50,HCT-116 colon,66.1 nM
same,TGI,HCT-116 colon,355 nM
same,GI50,PC-3 prostate,272 nM
same,TGI,PC-3 prostate,1790 nM
same,GI50,NCI/ADR-RES ovarian,5580 nM
same,TGI,NCI/ADR-RES ovarian,18400 nM
same,GI50,SK-OV-3 ovarian,622 nM
same,TGI,SK-OV-3 ovarian,2150 nM
same,GI50,OVCAR-4 ovarian,145 nM
same,TGI,OVCAR-4 ovarian,982 nM
same,GI50,OVCAR-8 ovarian,169 nM
same,TGI,OVCAR-8 ovarian,627 nM
same,GI50,OVCAR-5 ovarian,236 nM
same,TGI,OVCAR-5 ovarian,1310 nM
same,GI50,CCRF-CEM leukemia,26.4 nM
same,TGI,CCRF-CEM leukemia,1310 nM
same,GI50,SK-MEL-28 melanoma,278 nM
same,TGI,SK-MEL-28 melanoma,1100 nM
same,GI50,IGROV1 ovarian,77 nM
same,TGI,IGROV1 ovarian,365 nM
same,GI50,BT-549 breast,614 nM
same,TGI,BT-549 breast,1350 nM
same,GI50,RXF 393 renal,110 nM
same,TGI,RXF 393 renal,333 nM
same,GI50,CAKI-1 renal,142 nM
same,TGI,CAKI-1 renal,458 nM
same,GI50,T-47D breast,582 nM
same,TGI,T-47D breast,1590 nM
same,GI50,SNB-75 CNS,20.6 nM
same,TGI,SNB-75 CNS,108 nM
same,GI50,HL-60(TB) leukemia,104 nM
same,TGI,HL-60(TB) leukemia,462 nM
same,GI50,COLO 205 colon,89.2 nM
same,TGI,COLO 205 colon,196 nM
same,GI50,UACC-257 melanoma,390 nM
same,TGI,UACC-257 melanoma,1250 nM
same,GI50,HOP-92 NSCLC,67 nM
same,TGI,HOP-92 NSCLC,261 nM
same,GI50,NCI-H522 lung,59.2 nM
same,TGI,NCI-H522 lung,157 nM
same,GI50,U251 CNS,243 nM
same,TGI,U251 CNS,805 nM
same,GI50,NCI-H460 lung,163 nM
same,TGI,NCI-H460 lung,541 nM
same,GI50,SK-MEL-5 melanoma,681 nM
same,TGI,SK-MEL-5 melanoma,1350 nM
same,GI50,SN12C renal,45.2 nM
same,TGI,SN12C renal,605 nM
same,GI50,SF-539 CNS,32 nM
same,TGI,SF-539 CNS,172 nM
same,GI50,UO-31 renal,917 nM
same,TGI,UO-31 renal,1930 nM
same,GI50,EKVX NSCLC,142 nM
same,TGI,EKVX NSCLC,1050 nM
same,GI50,KM12 colon,9.27 nM
same,TGI,KM12 colon,793 nM
same,GI50,HOP-62 NSCLC,178 nM
same,TGI,HOP-62 NSCLC,909 nM
same,GI50,K-562 leukemia,5 nM
same,TGI,K-562 leukemia,1640 nM
same,GI50,UACC-62 melanoma,284 nM
same,TGI,UACC-62 melanoma,1100 nM
same,GI50,HCC-2998 colon,238 nM
same,TGI,HCC-2998 colon,858 nM
same,GI50,LOX IMVI melanoma,63.4 nM
same,TGI,LOX IMVI melanoma,258 nM
same,GI50,SNB-19 CNS,203 nM
same,TGI,SNB-19 CNS,1240 nM
same,GI50,MCF7 breast,46.9 nM
same,TGI,MCF7 breast,409 nM
same,GI50,786-0 renal,282 nM
same,TGI,786-0 renal,986 nM
same,GI50,SF-295 CNS,413 nM
same,TGI,SF-295 CNS,1390 nM
same,GI50,DU-145 prostate,144 nM
same,TGI,DU-145 prostate,543 nM
same,GI50,HS 578T breast,59.8 nM
same,TGI,HS 578T breast,451 nM
same,GI50,SR leukemia,34 nM
same,TGI,SR leukemia,534 nM
same,GI50,MALME-3M melanoma,125 nM
same,TGI,MALME-3M melanoma,544 nM
same,GI50,SF-268 CNS,109 nM
same,TGI,SF-268 CNS,554 nM
Fc1ccc(-c2cc3nc(C(Cl)Cl)nc(-c4ccc(F)cc4)n3n2)cc1,GI50,RPMI-8226 leukemia,2660 nM
same,TGI,RPMI-8226 leukemia,> 100000 nM
same,GI50,A498 renal,1650 nM
same,TGI,A498 renal,3440 nM
same,GI50,SK-MEL-2 melanoma,> 100000 nM
same,TGI,SK-MEL-2 melanoma,> 100000 nM
same,GI50,HCT-15 colon,1110 nM
same,TGI,HCT-15 colon,6160 nM
same,GI50,NCI-H226 lung,6140 nM
same,TGI,NCI-H226 lung,> 100000 nM
same,GI50,ACHN renal,676 nM
same,TGI,ACHN renal,4160 nM
same,GI50,OVCAR-3 ovarian,1540 nM
same,TGI,OVCAR-3 ovarian,3510 nM
same,GI50,MOLT-4 leukemia,1800 nM
same,TGI,MOLT-4 leukemia,9610 nM
same,GI50,HT29 colon,746 nM
same,TGI,HT29 colon,3850 nM
same,GI50,SW-620 colon,1110 nM
same,TGI,SW-620 colon,6850 nM
same,GI50,HCT-116 colon,637 nM
same,TGI,HCT-116 colon,6300 nM
same,GI50,NCI/ADR-RES ovarian,1260 nM
same,TGI,NCI/ADR-RES ovarian,5840 nM
same,GI50,SK-OV-3 ovarian,2360 nM
same,TGI,SK-OV-3 ovarian,6340 nM
same,GI50,OVCAR-4 ovarian,1820 nM
same,TGI,OVCAR-4 ovarian,5750 nM
same,GI50,OVCAR-5 ovarian,2270 nM
same,TGI,OVCAR-5 ovarian,7290 nM
same,GI50,CCRF-CEM leukemia,4210 nM
same,TGI,CCRF-CEM leukemia,> 100000 nM
same,GI50,IGROV1 ovarian,3990 nM
same,TGI,IGROV1 ovarian,> 100000 nM
same,GI50,BT-549 breast,2430 nM
same,TGI,BT-549 breast,42800 nM
same,GI50,RXF 393 renal,1100 nM
same,TGI,RXF 393 renal,2430 nM
same,GI50,CAKI-1 renal,1890 nM
same,TGI,CAKI-1 renal,6740 nM
same,GI50,T-47D breast,2620 nM
same,TGI,T-47D breast,> 100000 nM
same,GI50,SNB-75 CNS,64900 nM
same,TGI,SNB-75 CNS,> 100000 nM
same,GI50,HL-60(TB) leukemia,690 nM
same,GI50,COLO 205 colon,1150 nM
same,TGI,COLO 205 colon,2520 nM
same,GI50,UACC-257 melanoma,2260 nM
same,TGI,UACC-257 melanoma,4910 nM
same,GI50,HOP-92 NSCLC,2600 nM
same,TGI,HOP-92 NSCLC,9690 nM
same,GI50,U251 CNS,1220 nM
same,TGI,U251 CNS,5270 nM
same,GI50,NCI-H460 lung,591 nM
same,TGI,NCI-H460 lung,3170 nM
same,GI50,SK-MEL-5 melanoma,> 100000 nM
same,TGI,SK-MEL-5 melanoma,> 100000 nM
same,GI50,SF-539 CNS,3560 nM
same,TGI,SF-539 CNS,> 100000 nM
same,GI50,UO-31 renal,3100 nM
same,TGI,UO-31 renal,> 100000 nM
same,GI50,EKVX NSCLC,1680 nM
same,TGI,EKVX NSCLC,4370 nM
same,GI50,KM12 colon,1730 nM
same,TGI,KM12 colon,5220 nM
same,GI50,HOP-62 NSCLC,1500 nM
same,TGI,HOP-62 NSCLC,4260 nM
same,GI50,K-562 leukemia,2300 nM
same,TGI,K-562 leukemia,> 100000 nM
same,GI50,UACC-62 melanoma,3210 nM
same,TGI,UACC-62 melanoma,> 100000 nM
same,GI50,HCC-2998 colon,1010 nM
same,TGI,HCC-2998 colon,2350 nM
same,GI50,SNB-19 CNS,1650 nM
same,TGI,SNB-19 CNS,6880 nM
same,GI50,MCF7 breast,1210 nM
same,TGI,MCF7 breast,> 100000 nM
same,GI50,786-0 renal,16900 nM
same,TGI,786-0 renal,> 100000 nM
same,GI50,SF-295 CNS,2170 nM
same,TGI,SF-295 CNS,5780 nM
same,GI50,DU-145 prostate,443 nM
same,TGI,DU-145 prostate,2970 nM
same,GI50,HS 578T breast,4140 nM
same,TGI,HS 578T breast,> 100000 nM
same,GI50,SR leukemia,1400 nM
same,TGI,SR leukemia,> 100000 nM
same,GI50,SF-268 CNS,2480 nM
same,TGI,SF-268 CNS,> 100000 nM

# — PubChem BioAssay (NCI)
